# Laboratory results reported in patent US20090208539A1, “STABLE ATORVASTATIN FORMULATIONS” (priority 2004, published 2009).
# Assay: Compatibility test of atorvastatin calcium with excipients (water added, sealed vial, 50° C., two weeks; impurities by HPLC, physical changes)
# Format: physicochemical
# Conditions: for Compatibility: 0.2 ml water added, sealed vial, two weeks
# Protocol: In order for an excipient to be used with an embodiment of the formulation of the present invention, it was required to perform acceptably during the compatibility testing. The acceptance criteria for the compatibility test were as follows. […] Physical stability was determined by examining the mixture's appearance in terms of discoloration, liquefaction, dryness and odor or gas.
# A granulate or dry mix of the drug substance and each of the excipients requested to the expected ratio in the possible final formulas was prepared. The granulate was prepared manually with a mortar and pestle. The active ingredient is mixed with the ingredient(s) to be tested, then granulated in a mortar and pestle using the aqueous granulation solution. The wet granulate was then dried in an oven at 60° C. down to LOD<5% and then milled.
# The compatibility test was performed as follows. Each mixture (blend or granulate) was transferred to a vial, 0.2 ml of purified water was added, and the mixtures were mixed with a Pasteur pipette, which was then broken and inserted in the vial in order to avoid any loss of material.
# The vials were then sealed and stored at a temperature of 50° C. for two weeks.
# After two weeks the vials were removed, examined for physical changes and were tested for impurities according to the HPLC method (RD 2000-1) as described in greater detail below.
# 75 ml of diluent was added and the samples were shaken for 30 min, and then diluted to volume with diluent.
# 5 ml of the above mentioned solution was transferred and diluted in a 10 ml volumetric flask. The diluent for all experiments was water:methanol mixture.
# Part of each dry granulate was placed in a 34 ml Securitainer® (a regular secure medicine bottle made from high density polyethylene; available from Jaycare Ltd in the United Kingdom) and placed in incubator at 40° C./75% RH for a 6 month stability study. Next, separate samples containing 1 g of each dry granulate were mixed with 200 μl water (LOD of the blend 16.67%), closed in a glass vial and stored at 50° C. for a 2 week compatibility test.
# Results of those compatibility and stability studies are summarized in table 4; a more detailed description of the same results is provided in table 5 below. Stability or compatibility criteria were defined as: maximum known impurity <0.5% (preferably comprising one or both of the Desfluoro (Desfl.) or lactone (Lact.) degradation forms); maximum unknown impurity <0.5%, preferably <0.3%; total impurities <1.5%.
# One gram of each blend was mixed with 200 μl purified water (LOD of the blend was 16.67%), placed in a closed glass vial and placed for 2 weeks in an incubator at 50° C. for a compatibility test.
# [1] = amorphous atorvastatin calcium, no excipient, 2 weeks, 16.7% LOD
SMILES,Desfluoro [1] [%],Lactone [1] [%],Max unknown impurity [1] [%],Total Impurities [1] [%],Compatibility (amorphous Atorvastatin Ca dry mixes),Compatibility (crystalline form VI Atorvastatin Ca granulates)
CC(C)c1c(C(=O)Nc2ccccc2)c(-c2ccccc2)c(-c2ccc(F)cc2)n1CC[C@@H](O)C[C@@H](O)CC(=O)[O-].CC(C)c1c(C(=O)Nc2ccccc2)c(-c2ccccc2)c(-c2ccc(F)cc2)n1CC[C@@H](O)C[C@@H](O)CC(=O)[O-].[Ca+2] [Reference (no excipient added)],0.12,0.04,0.05,0.33,–,–
CC(C)c1c(C(=O)Nc2ccccc2)c(-c2ccccc2)c(-c2ccc(F)cc2)n1CC[C@@H](O)C[C@@H](O)CC(=O)[O-].CC(C)c1c(C(=O)Nc2ccccc2)c(-c2ccccc2)c(-c2ccc(F)cc2)n1CC[C@@H](O)C[C@@H](O)CC(=O)[O-].[Ca+2] [Vial 1],–,–,–,–,Stable,Stable
